{"source": "paper PMC10115881", "about": "“Disrupting the α-synuclein-ESCRT interaction with a peptide inhibitor mitigates neurodegeneration in preclinical models of Parkinson’s disease” (Nature Communications, 2023)", "key": {"Rab7": {"tested_on": "Rab7", "assay": "Rab7 fluorescence in rat cortical neurons", "type": "cell-based", "conditions": "A53T a-syn", "source_text": "Pregnant rats (E17) of the Sprague-Dawley strain were purchased from Envigo. Embryos were surgically removed from the mothers and cortices dissected in Hanks Balanced salt solution (Gibco). The meninges were removed, and cells were dissociated using a papain dissociation system (Worthington) before being resuspended in Neurobasal medium A supplemented with antibiotic-antimycotic solution (Gibco), L-glutamine substitute (GlutaMAX™; Gibco) and factor B27 (Gibco). […]\nAfter fixation, cells were permeabilized with 0.2% Triton-X-100 for 15 min, washed three times with PBS and then incubated with blocking solution (1% BSA, 22.52 mg/mL glycine, 0.1% Tween-20 in PBS or 0.4% saponin, 1% BSA, and 5% goat or donkey serum in PBS) for 1 h. […] Following another three washes with PBS, nuclei were counterstained with DAPI (ThermoFisher) and then coverslips were mounted on slides using Dako fluorescence mounting medium (Agilent) and sealed using clear nail varnish.\nConfocal images of primary cortical neurons, iPSC-derived dopaminergic neurons, and LAMP1 staining within the SN were processed using Imaris software (Oxford instruments). […] Mean pixel intensity per GFP^+ cell (for experiments using GFP-tagged peptides) or RFP^+ cell (for experiments using RFP-tagged peptides) was calculated for a-syn or LAMP1 signal using the software’s surfaces module. […]"}, "a-syn-CHMP2B interaction": {"tested_on": "a-syn-CHMP2B interaction", "assay": "Proximity ligation assay, endogenous a-syn-CHMP2B in rat cortical neurons", "type": "cell-based", "method": "PLA was performed on fixed primary neurons using Duolink® in situ red starter kit mouse/rabbit (Sigma–Aldrich) according to the manufacturer’s instructions. Fixed neurons were permeabilized with 0.1% Triton-X-100 in PBS for 10 min, washed three times with PBS, and incubated with blocking solution for 30 min at 37 °C in a humidity chamber. Primary antibodies (mouse anti-a-syn (clone 42) (BD Biosciences, catalog #610787, 1:500) and rabbit anti-CHMP2B (Abcam, catalog #ab33174, 1:50)) were diluted using antibody diluent. After blocking, neurons were incubated with primary antibodies at room temperature for 1 h in a humidity chamber. Coverslips were washed with wash buffer A two times for 5 min and then incubated with PLA probe solution (anti-mouse minus and anti-rabbit plus) for 1 h at 37 °C in a humidity chamber. Coverslips were washed with wash buffer A two times for 5 min. For the ligation step, 5× ligation buffer was diluted 1:5 in high purity water and ligase was added to the 1× ligation buffer at 1:40 dilution. After the wash, coverslips were incubated in the diluted ligase for 30 min at 37 °C in a humidity chamber. Post-ligation, coverslips were washed with wash buffer A two times for 5 min. For the amplification step, 5× amplification buffer was diluted 1:5 in high purity water and polymerase was added to the 1× amplification buffer at 1:80 dilution. […]"}}}
{"sequence": "DEEIERQLKALG [PDpep1.3]", "values": [{"measurement": "Effect on Rab7", "setting": "Rab7", "value": "normalized"}, {"measurement": "Effect on a-syn-CHMP2B interaction, PLA", "setting": "a-syn-CHMP2B interaction", "value": "reduction of the interaction between endogenous WT a-syn and CHMP2B"}]}
